What all share (assay type): binding
What all share (conditions): 1 = hit, 0 = no hit

One experiment deals with T1, IDO1 (1-435) (Homo sapiens, UniProt P14902).
T1 construct: His-tag of pET15b with TEV site (thrombin site replaced) (cleaved yes); made in house; host or cells: E. coli Rosetta 2 (DE3) pLysS
The experiment in a line: STD-NMR fragment screening, IDO1. An outline of the steps: (§1)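 Saturation-transfer difference NMR was run at 25°C and 700 MHz with 20 µM protein, two fragments at 1 mM each, and 10% DMSO-d6. On-resonance saturation was at 0.5–0.6 ppm and off-resonance at 40 ppm, with a 3 s Gaussian-pulse train. A hit required a difference-spectrum peak at least three times the local noise.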

A further experiment concerns the target AAK1 (121-471) (Homo sapiens, UniProt Q2M2I8). The experiment in a line: STD-NMR fragment screening, AAK1. An outline of the steps: as §1
Another experiment deals with T2, DOT1L (1-416) (Homo sapiens, UniProt Q8TEK3).
T2 construct: made in house; host or cells: E. coli BL21 (DE3) pLysS
The experiment in a line: STD-NMR fragment screening, DOT1L. An outline of the steps:
as §1

A further experiment concerns the target T3, CAMK1G (1-320) (Homo sapiens, UniProt Q96NX5).
T3 construct: made in house; host or cells: E. coli BL21 (DE3) pLysS
The experiment in a line: STD-NMR fragment screening, CAMK1G. An outline of the steps:
as §1

T1 sequence (P14902 whole entry): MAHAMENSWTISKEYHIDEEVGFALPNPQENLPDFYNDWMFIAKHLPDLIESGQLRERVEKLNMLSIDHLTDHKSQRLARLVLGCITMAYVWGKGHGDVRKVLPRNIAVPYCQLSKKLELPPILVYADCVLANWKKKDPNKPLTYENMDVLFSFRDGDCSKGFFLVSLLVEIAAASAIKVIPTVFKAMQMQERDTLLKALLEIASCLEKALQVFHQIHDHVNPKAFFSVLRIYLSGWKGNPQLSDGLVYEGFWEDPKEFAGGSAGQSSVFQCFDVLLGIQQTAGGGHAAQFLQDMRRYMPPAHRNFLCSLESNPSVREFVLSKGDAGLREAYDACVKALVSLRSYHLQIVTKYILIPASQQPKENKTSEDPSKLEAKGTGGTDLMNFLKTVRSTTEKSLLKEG
T2 sequence (Q8TEK3 1-416): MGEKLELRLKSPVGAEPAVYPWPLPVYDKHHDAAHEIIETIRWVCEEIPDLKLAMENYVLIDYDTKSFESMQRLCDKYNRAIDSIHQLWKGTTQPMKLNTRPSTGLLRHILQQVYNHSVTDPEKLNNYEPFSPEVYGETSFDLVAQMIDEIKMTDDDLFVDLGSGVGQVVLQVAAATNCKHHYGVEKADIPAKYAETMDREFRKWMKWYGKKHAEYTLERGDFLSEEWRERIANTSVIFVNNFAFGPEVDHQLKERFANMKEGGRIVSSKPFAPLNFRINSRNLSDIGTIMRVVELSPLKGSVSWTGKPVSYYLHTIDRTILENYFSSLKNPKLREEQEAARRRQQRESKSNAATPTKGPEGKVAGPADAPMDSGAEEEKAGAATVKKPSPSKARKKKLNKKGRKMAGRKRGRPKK
AAK1 (121-471), sequence (Q2M2I8 46-315 limits assumed): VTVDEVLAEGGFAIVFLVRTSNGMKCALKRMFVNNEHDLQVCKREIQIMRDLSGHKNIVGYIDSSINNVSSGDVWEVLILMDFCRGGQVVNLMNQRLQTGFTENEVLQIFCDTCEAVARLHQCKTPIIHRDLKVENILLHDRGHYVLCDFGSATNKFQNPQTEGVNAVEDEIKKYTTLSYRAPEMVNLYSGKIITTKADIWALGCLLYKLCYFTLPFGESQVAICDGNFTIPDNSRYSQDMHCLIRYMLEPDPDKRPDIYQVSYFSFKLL
T3 sequence (Q96NX5 1-320): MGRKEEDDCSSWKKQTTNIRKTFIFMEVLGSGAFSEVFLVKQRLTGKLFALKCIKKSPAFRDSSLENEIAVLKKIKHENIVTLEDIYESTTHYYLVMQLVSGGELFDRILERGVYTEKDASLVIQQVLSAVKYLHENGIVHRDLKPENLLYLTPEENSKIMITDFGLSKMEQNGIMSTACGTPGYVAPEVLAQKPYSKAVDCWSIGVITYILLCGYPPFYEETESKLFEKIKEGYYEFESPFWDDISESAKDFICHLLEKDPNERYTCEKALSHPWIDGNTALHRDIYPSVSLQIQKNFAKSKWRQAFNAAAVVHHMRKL

Turning to `Fc1cc(C2CNCCN2)c(Cl)cc1Cl` (stereo not shown) [Fragment B02297397], at IDO1 (1-435), the “IDO1 (STD-NMR hit flag)” value worked out at 0. For the same compound, the “AAK1 (STD-NMR hit flag)” value at AAK1 (121-471) turned out to be 0. Also, the “DOT1L (STD-NMR hit flag)” value at DOT1L (1-416) was 0. The “CAMK1G (STD-NMR hit flag)” value at CAMK1G (1-320) was determined as 0.
For the compound `O=C(O)c1sccc1Cl` [Fragment B02297398], the “IDO1 (STD-NMR hit flag)” value at IDO1 (1-435) stood at 0. Besides, the “AAK1 (STD-NMR hit flag)” value at AAK1 (121-471) turned out to be 0. The “DOT1L (STD-NMR hit flag)” value at DOT1L (1-416) stood at 0. In addition, the “CAMK1G (STD-NMR hit flag)” value on CAMK1G (1-320) worked out at 0.
On to `OB(O)c1ccncc1Br` [Fragment B02297399], for which the “IDO1 (STD-NMR hit flag)” value on IDO1 (1-435) is reported as 0. Besides, the “AAK1 (STD-NMR hit flag)” value on AAK1 (121-471) was 0. The “DOT1L (STD-NMR hit flag)” value at DOT1L (1-416) turned out to be 0. The “CAMK1G (STD-NMR hit flag)” value at CAMK1G (1-320) was determined as 0.
Regarding `O=C(c1ccc(Cl)cc1)N1CCOCC1` [Fragment B02297400], the “IDO1 (STD-NMR hit flag)” value on IDO1 (1-435) is 0. On AAK1 (121-471), the “AAK1 (STD-NMR hit flag)” value is reported as 0. Besides, the “DOT1L (STD-NMR hit flag)” value at DOT1L (1-416) was 0. In addition, at CAMK1G (1-320), the “CAMK1G (STD-NMR hit flag)” value came to 0.
With `Oc1cccc(O)c1Br` [Fragment B02297401], the “IDO1 (STD-NMR hit flag)” value at IDO1 (1-435) was 0. The “AAK1 (STD-NMR hit flag)” value on AAK1 (121-471) is recorded as 1. Also, the “DOT1L (STD-NMR hit flag)” value on DOT1L (1-416) is recorded as 0. For the same compound, on CAMK1G (1-320), the “CAMK1G (STD-NMR hit flag)” value is on record as 0.
In the case of `Cc1cnc(C)c(Cl)n1` [Fragment B02297402], the “IDO1 (STD-NMR hit flag)” value on IDO1 (1-435) was found to be 0. For the same compound, on AAK1 (121-471), the “AAK1 (STD-NMR hit flag)” value is on record as 1. Moreover, the “DOT1L (STD-NMR hit flag)” value at DOT1L (1-416) is recorded as 0. In addition, the “CAMK1G (STD-NMR hit flag)” value at CAMK1G (1-320) is 0.
As to `O=C(O)c1cnccc1Br` [Fragment B02297403], the “IDO1 (STD-NMR hit flag)” value at IDO1 (1-435) was 0. On AAK1 (121-471), the “AAK1 (STD-NMR hit flag)” value was found to be 0. Further, the “DOT1L (STD-NMR hit flag)” value on DOT1L (1-416) was 0. At CAMK1G (1-320), the “CAMK1G (STD-NMR hit flag)” value was 0.
Take `CN1CCN(c2ccc(Br)cn2)CC1` [Fragment B02297404]: the “IDO1 (STD-NMR hit flag)” value on IDO1 (1-435) is 0. Besides, the “AAK1 (STD-NMR hit flag)” value on AAK1 (121-471) was determined as 0. Also, the “DOT1L (STD-NMR hit flag)” value on DOT1L (1-416) is 0. The “CAMK1G (STD-NMR hit flag)” value at CAMK1G (1-320) was 0.
For the compound `Cc1c(Cl)cnc(N)c1Cl` [Fragment B02297405], on IDO1 (1-435), the “IDO1 (STD-NMR hit flag)” value is reported as 0. Further, the “AAK1 (STD-NMR hit flag)” value on AAK1 (121-471) amounted to 1. The “DOT1L (STD-NMR hit flag)” value on DOT1L (1-416) stood at 1. At CAMK1G (1-320), the “CAMK1G (STD-NMR hit flag)” value is on record as 1.
`Cc1cc(N)c(Br)cn1` [Fragment B02297406]: the “IDO1 (STD-NMR hit flag)” value on IDO1 (1-435) came out at 0. Further, the “AAK1 (STD-NMR hit flag)” value at AAK1 (121-471) worked out at 1. Moreover, the “DOT1L (STD-NMR hit flag)” value on DOT1L (1-416) is listed as 0. In addition, the “CAMK1G (STD-NMR hit flag)” value on CAMK1G (1-320) was found to be 0.
Regarding `COC(=O)c1cc(N)c(Cl)s1` [Fragment B02297407], the “IDO1 (STD-NMR hit flag)” value on IDO1 (1-435) was 0. In addition, the “AAK1 (STD-NMR hit flag)” value on AAK1 (121-471) worked out at 1. Also, at DOT1L (1-416), the “DOT1L (STD-NMR hit flag)” value is recorded as 1. Moreover, at CAMK1G (1-320), the “CAMK1G (STD-NMR hit flag)” value turned out to be 0.
`Brc1ccc(C2CNCCN2)s1` (stereo not shown) [Fragment B02297408]: the “IDO1 (STD-NMR hit flag)” value on IDO1 (1-435) was 0. Besides, the “AAK1 (STD-NMR hit flag)” value at AAK1 (121-471) turned out to be 0. In addition, the “DOT1L (STD-NMR hit flag)” value at DOT1L (1-416) came to 0. In addition, the “CAMK1G (STD-NMR hit flag)” value on CAMK1G (1-320) came out at 0.
On to `Nc1ccc2[nH]cnc2c1Br` [Fragment B02297409], for which the “IDO1 (STD-NMR hit flag)” value on IDO1 (1-435) is listed as 0. Further, the “AAK1 (STD-NMR hit flag)” value at AAK1 (121-471) worked out at 1. Also, the “DOT1L (STD-NMR hit flag)” value on DOT1L (1-416) is reported as 0. The “CAMK1G (STD-NMR hit flag)” value at CAMK1G (1-320) stood at 0.
Regarding `OC1CCN(c2cc(Cl)ncn2)CC1` [Fragment B02297410], the “IDO1 (STD-NMR hit flag)” value at IDO1 (1-435) was found to be 0. The “AAK1 (STD-NMR hit flag)” value at AAK1 (121-471) is reported as 1. In addition, the “DOT1L (STD-NMR hit flag)” value at DOT1L (1-416) was 0. For the same compound, the “CAMK1G (STD-NMR hit flag)” value at CAMK1G (1-320) is 0.
As for `O=C(O)c1c(Cl)cncc1Cl` [Fragment B02297411], the “IDO1 (STD-NMR hit flag)” value at IDO1 (1-435) was 1. For the same compound, the “AAK1 (STD-NMR hit flag)” value at AAK1 (121-471) is recorded as 0. Further, the “DOT1L (STD-NMR hit flag)” value on DOT1L (1-416) was 0. Further, the “CAMK1G (STD-NMR hit flag)” value on CAMK1G (1-320) came to 0.
As to `Nc1nc(Cl)c(NC=O)c(Cl)n1` [Fragment B02297412], the “IDO1 (STD-NMR hit flag)” value on IDO1 (1-435) was 0. The “AAK1 (STD-NMR hit flag)” value on AAK1 (121-471) was 0. At DOT1L (1-416), the “DOT1L (STD-NMR hit flag)” value turned out to be 0. In addition, on CAMK1G (1-320), the “CAMK1G (STD-NMR hit flag)” value was found to be 0.
For the compound `O=C(O)c1cc(Br)c(O)cc1O` [Fragment B02297413], at IDO1 (1-435), the “IDO1 (STD-NMR hit flag)” value is given as 1. Further, at AAK1 (121-471), the “AAK1 (STD-NMR hit flag)” value is reported as 1. Also, at DOT1L (1-416), the “DOT1L (STD-NMR hit flag)” value is reported as 0. For the same compound, the “CAMK1G (STD-NMR hit flag)” value on CAMK1G (1-320) worked out at 0.
As to `Clc1nsnc1N1CCOCC1` [Fragment B02297414], the “IDO1 (STD-NMR hit flag)” value on IDO1 (1-435) came out at 0. Also, the “AAK1 (STD-NMR hit flag)” value on AAK1 (121-471) is recorded as 0. The “DOT1L (STD-NMR hit flag)” value at DOT1L (1-416) is on record as 0. In addition, on CAMK1G (1-320), the “CAMK1G (STD-NMR hit flag)” value came to 0.
On to `Cn1cc(Br)c(N)n1` [Fragment B02297415], for which, on IDO1 (1-435), the “IDO1 (STD-NMR hit flag)” value is 0. At AAK1 (121-471), the “AAK1 (STD-NMR hit flag)” value came to 0. In addition, the “DOT1L (STD-NMR hit flag)” value at DOT1L (1-416) is 0. Besides, the “CAMK1G (STD-NMR hit flag)” value on CAMK1G (1-320) is reported as 0.

For the origin of these results see PMC8847695 (Frontiers in Chemistry, 2022).
